Patent publication US10351576B2, “Fused tricyclic pyrazole derivatives useful for farnesoid X receptors” (NOVARTIS AG, priority 2015, dated 2019)

These compounds were tested against T1, human Farnesoid X Receptor (FXR) ligand binding domain (GST-FXR LBD) (Homo sapiens, UniProt Q96RI1) (assay: Human GST-FXR LBD co-activator interaction assay (FXR HTRF assay)). Settings: ligand-dependent interaction of GST-FXR LBD with biotin-labeled SRC-1 peptide, response relative to GW4064, read-out: FXR coactivator interaction assay (HTRF).
T1 construct: purchased Invitrogen
T1 sequence (Q96RI1 193-472 isoform Q96RI1-2): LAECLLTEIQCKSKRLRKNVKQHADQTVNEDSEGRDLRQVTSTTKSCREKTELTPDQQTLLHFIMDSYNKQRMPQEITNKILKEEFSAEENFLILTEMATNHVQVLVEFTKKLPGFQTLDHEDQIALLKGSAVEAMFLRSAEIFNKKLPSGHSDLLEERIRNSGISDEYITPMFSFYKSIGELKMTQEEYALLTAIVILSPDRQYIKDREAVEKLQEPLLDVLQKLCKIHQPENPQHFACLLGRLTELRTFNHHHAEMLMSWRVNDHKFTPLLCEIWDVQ
Format: biochemical
Excerpt: Human GST-FXR LBD Co-Activator Interaction Assay
The FXR HTRF assay is a biochemical assay measuring the interaction between FXR and a coactivator protein (SRC1). The ligand-induced interaction with a coactivator protein is a critical step in transcriptional activation by FXR. Thus, this is an assay designed to measure FXR agonist activity of the test compounds.
Recombinant human Farnesoid X Receptor (FXR) ligand binding domain (amino acids 193-472) fused to glutathione S-transferase (GST) purified protein (GST-FXR LBD) was purchased (Invitrogen). The ligand-dependent interaction between GST-FXR LBD and a peptide derived from Steroid Receptor Coactivator-1 (SRC-1) was monitored by Fluorescence Resonance Energy Transfer (FRET). […] Test compounds (in DMSO solution) and detection reagents (anti-GST-Cryptate labeled antibody and Streptavidin-XL665 conjugate; CisBio) were added in assay buffer containing 50 mM KF. Plates are incubated at room temperature in the dark for 2.5 hrs before reading on an Envision (PerkinElmer) at 665 nm and 590 nm. The HTRF assay results were calculated from the 665 nm/590 nm ratio (ratio=(A665 nm/A590 nm)×10^4) and expressed in Delta F %=(Ratiosample−Rationegative)/Rationegative×100.
A negative control (without Streptavidin-XL665) was run with each assay and represented the background fluorescence. A reference FXR agonist, (E)-3-(2-chloro-4-((3-(2,6-dichlorophenyl)-5-isopropylisoxazol-4-yl)methoxy)styryl)benzoic acid (Compound GW4064), was included in each experiment as positive control. The efficacy of each test compound was compared to that of GW4064. At each concentration, the relative activity of the test compound was expressed as Response %=(Rsample−RDMSO)/(Rpositive−RDMSO), where Rsample is the HTRF response (expressed in Delta F %) for the test compound, Rpositive is the maximal response for GW4064 at saturating concentrations, and RDMSO is the response for DMSO control. The EC50 values were calculated using GraphPad Prism (GraphPad Software) using non-linear regression curve fit (log(agonist) vs. response—variable slope (four parameters)).

Q: How did the EC50 turn out when `CC(C)NC(=O)CN(Cc1cc(F)ccc1F)C(=O)c1nn(C)c2c1COc1ccc(Cl)cc1-2` [Compound 26, 2-(1-{8-chloro-1-methyl-1H,4H-chromeno[4,3-c]pyrazol-3-yl}-N-[(2,5-difluorophenyl)methyl]formamido)-N-(propan-2-yl)acetamide] was run?
A: 84 nM

Q: Which EC50 does the source give for `Cn1nc(C(=O)N(CC(=O)NC2CC2)Cc2cccc(F)c2)c2c1-c1cc(Cl)ccc1OC2` [Compound 27, 2-(1-{8-chloro-1-methyl-1H,4H-chromeno[4,3-c]pyrazol-3-yl}-N-[(3-fluorophenyl)methyl]formamido)-N-cyclopropylacetamide] here?
A: 61 nM

Q: For `CC(C)NC(=O)CN(Cc1cccc(F)c1)C(=O)c1nn(C)c2c1COc1ccc(Br)cc1-2` [Compound 28, 2-(1-{8-bromo-1-methyl-1H,4H-chromeno[4,3-c]pyrazol-3-yl}-N-[(3-fluorophenyl)methyl]formamido)-N-(propan-2-yl)acetamide], which EC50 is on record?
A: 36 nM

Q: Which EC50 does the source give for `CC(C)NC(=O)CN(Cc1ccccc1F)C(=O)c1nn(C)c2c1COc1ccc(Cl)cc1-2` [Compound 29, 2-(1-{8-chloro-1-methyl-1H,4H-chromeno[4,3-c]pyrazol-3-yl}-N-[(2-fluorophenyl)methyl]formamido)-N-(propan-2-yl)acetamide] here?
A: 197 nM

Q: With `Cn1nc(C(=O)N(CC(=O)NC(C)(C)C)Cc2ccccc2F)c2c1-c1cc(Cl)ccc1OC2` [Compound 30, N-tert-butyl-2-(1-{8-chloro-1-methyl-1H,4H-chromeno[4,3-c]pyrazol-3-yl}-N-[(2-fluorophenyl)methyl]formamido)acetamide] as the compound, how does the EC50 read?
A: 190 nM

Q: `Cn1nc(C(=O)N(CC(=O)NCC2CCCO2)Cc2ccccc2F)c2c1-c1cc(Cl)ccc1OC2` (stereo not shown) [Compound 31, 2-(1-{8-chloro-1-methyl-1H,4H-chromeno[4,3-c]pyrazol-3-yl}-N-[(2-fluorophenyl)methyl]formamido)-N-(oxolan-2-ylmethyl)acetamide] was tested. Which EC50 did it give?
A: 124 nM

Q: With `Cn1nc(C(=O)N(CC(=O)NCC2CCCOC2)Cc2ccccc2F)c2c1-c1cc(Cl)ccc1OC2` (stereo not shown) [Compound 32, 2-(1-{8-chloro-1-methyl-1H,4H-chromeno[4,3-c]pyrazol-3-yl}-N-[(2-fluorophenyl)methyl]formamido)-N-(oxan-3-ylmethyl)acetamide] as the compound, how does the EC50 read?
A: 376 nM

Q: For `Cn1nc(C(=O)N(CC(=O)NCCF)Cc2cccc(F)c2F)c2c1-c1cc(Cl)ccc1OC2` [Compound 33, 2-(1-{8-chloro-1-methyl-1H,4H-chromeno[4,3-c]pyrazol-3-yl}-N-[(2,3-difluorophenyl)methyl]formamido)-N-(2-fluoroethyl)acetamide], which EC50 is on record?
A: 62 nM

Q: `CNC(=O)CN(Cc1ccccc1)C(=O)c1nn(C)c2c1COc1ccc(Br)cc1-2` [Compound 34, 2-(N-benzyl-1-{8-bromo-1-methyl-1H,4H-chromeno[4,3-c]pyrazol-3-yl}formamido)-N methylacetamide] was tested. Which EC50 did it give?
A: 193 nM

Q: For `CC(C)NC(=O)CN(Cc1c(F)cccc1F)C(=O)c1nn(C)c2c1COc1ccc(Cl)cc1-2` [Compound 35, 2-(1-{8-chloro-1-methyl-1H,4H-chromeno[4,3-c]pyrazol-3-yl}-N-[(2,6-difluorophenyl)methyl]formamido)-N-(propan-2-yl)acetamide], which EC50 is on record?
A: 366 nM

Q: How did the EC50 turn out when `Cn1nc(C(=O)N(CC(=O)NC2CCS(=O)(=O)C2)Cc2cccc(F)c2)c2c1-c1cc(Cl)ccc1OC2` (stereo not shown) [Compound 36, 8-chloro-N-(2-((1,1-dioxidotetrahydrothiophen-3-yl)amino)-2-oxoethyl)-N-(3-fluorobenzyl)-1-methyl-1,4-dihydrochromeno[4,3-c]pyrazole-3-carboxamide] was run?
A: 99 nM

Q: How did the EC50 turn out when `CNC(=O)c1ccc(NC(=O)CN(Cc2ccccc2F)C(=O)c2nn(C)c3c2COc2ccc(Cl)cc2-3)cc1` [Compound 37, 4-[2-(1-{8-chloro-1-methyl-1H,4H-chromeno[4,3-c]pyrazol-3-yl}-N-[(2-fluorophenyl)methyl]formamido)acetamido]-N-methylbenzamide] was run?
A: 192 nM

Q: `Cn1nc(C(=O)N(CC(=O)NC2CCC(O)CC2)Cc2ccccc2F)c2c1-c1cc(Cl)ccc1OC2` (stereo not shown) [Compound 38, 2-(1-{8-chloro-1-methyl-1H,4H-chromeno[4,3-c]pyrazol-3-yl}-N-[(2-fluorophenyl)methyl]formamido)-N-(4-hydroxycyclohexyl)acetamide] was tested. Which EC50 did it give?
A: 717 nM

Q: For `Cn1nc(C(=O)N(CC(=O)NC2CCS(=O)(=O)C2)Cc2ccccc2F)c2c1-c1cc(Cl)ccc1OC2` (stereo not shown) [Compound 39, 8-chloro-N-(2-((1,1-dioxidotetrahydrothiophen-3-yl)amino)-2-oxoethyl)-N-(2-fluorobenzyl)-1-methyl-1,4-dihydrochromeno[4,3-c]pyrazole-3-carboxamide], which EC50 is on record?
A: 482 nM

Q: With `Cn1nc(C(=O)N(CC(=O)NCC2CC2)CC2CCOCC2)c2c1-c1cc(Cl)ccc1OC2` [Compound 40, 2-(1-{8-chloro-1-methyl-1H,4H-chromeno[4,3-c]pyrazol-3-yl}-N-(oxan-4-ylmethyl)formamido)-N-(cyclopropylmethyl)acetamide] as the compound, how does the EC50 read?
A: 608 nM

Q: For `Cn1nccc1NC(=O)CN(Cc1ccccc1F)C(=O)c1nn(C)c2c1COc1ccc(Cl)cc1-2` [Compound 41, 2-(1-{8-chloro-1-methyl-1H,4H-chromeno[4,3-c]pyrazol-3-yl}-N-[(2-fluorophenyl)methyl]formamido)-N-(1-methyl-1H-pyrazol-5-yl)acetamide], which EC50 is on record?
A: 1610 nM

Q: `CC(C)NC(=O)CN(Cc1cccc(F)c1F)C(=O)c1nn(C)c2c1COc1ccc(Cl)cc1-2` [Compound 42, 2-(1-{8-chloro-1-methyl-1H,4H-chromeno[4,3-c]pyrazol-3-yl}-N-[(2,3-difluorophenyl)methyl]formamido)-N-(propan-2-yl)acetamide] was tested. Which EC50 did it give?
A: 631 nM

Q: Which EC50 does the source give for `Cn1nc(C(=O)N(CC(=O)NC(C)(C)c2ccccc2)Cc2ccccc2F)c2c1-c1cc(Cl)ccc1OC2` [Compound 43, 2-(1-{8-chloro-1-methyl-1H,4H-chromeno[4,3-c]pyrazol-3-yl}-N-[(2-fluorophenyl)methyl]formamido)-N-(2-phenylpropan-2-yl)acetamide] here?
A: 1700 nM

Q: `Cn1nc(C(=O)N(CC(=O)NCC(O)C(F)(F)F)Cc2ccccc2F)c2c1-c1cc(Cl)ccc1OC2` (stereo not shown) [Compound 44, 8-chloro-N-(2-fluorobenzyl)-1-methyl-N-(2-oxo-2-((3,3,3-trifluoro-2-hydroxypropyl)amino)ethyl)-1,4-dihydrochromeno[4,3-c]pyrazole-3-carboxamide] was tested. Which EC50 did it give?
A: 8 nM

Q: With `Cn1nc(C(=O)N(CC(=O)NCC(C)(O)C(F)(F)F)Cc2ccccc2F)c2c1-c1cc(Cl)ccc1OC2` (stereo not shown) [Compound 45, 2-(1-{8-chloro-1-methyl-1H,4H-chromeno[4,3-c]pyrazol-3-yl}-N-[(2-fluorophenyl)methyl]formamido)-N-(3,3,3-trifluoro-2-hydroxy-2-methylpropyl)acetamide] as the compound, how does the EC50 read?
A: 33 nM

Q: For `Cn1nc(C(=O)N(CC(=O)NCC(C)(C)O)Cc2ccccc2F)c2c1-c1cc(Cl)ccc1OC2` [Compound 46, 2-(1-{8-chloro-1-methyl-1H,4H-chromeno[4,3-c]pyrazol-3-yl}-N-[(2-fluorophenyl)methyl]formamido)-N-(2-hydroxy-2-methylpropyl)acetamide], which EC50 is on record?
A: 19 nM

Q: `Cn1nc(C(=O)N(CC(=O)NCC2(O)CC2)Cc2ccccc2F)c2c1-c1cc(Cl)ccc1OC2` [Compound 48, 2-(1-{8-chloro-1-methyl-1H,4H-chromeno[4,3-c]pyrazol-3-yl}-N-[(2-fluorophenyl)methyl]formamido)-N-[(1-hydroxycyclopropyl)methyl]acetamide] was tested. Which EC50 did it give?
A: 75 nM
